The source made the active and inactive calls. The calls are words filed in the database; no cut-off is given here.
Assays:
[1] = molecular target: Tyrosine-protein kinase BTK (Homo sapiens, UniProt Q06187); test: Inhibition of recombinant human full-length N-terminal His6-tagged BTK expressed in baculovirus infected Sf21 insect cells using STK substrate by HTRF assay
[2] = molecular target: T1, Tyrosine-protein kinase JAK3 (Homo sapiens, UniProt P52333); test: Inhibition of recombinant human N-terminal His6-tagged JAK3 (781 to end residues) expressed in baculovirus infected Sf21 cells using STK as substrate by HTRF assay
T1 sequence (P52333 whole entry): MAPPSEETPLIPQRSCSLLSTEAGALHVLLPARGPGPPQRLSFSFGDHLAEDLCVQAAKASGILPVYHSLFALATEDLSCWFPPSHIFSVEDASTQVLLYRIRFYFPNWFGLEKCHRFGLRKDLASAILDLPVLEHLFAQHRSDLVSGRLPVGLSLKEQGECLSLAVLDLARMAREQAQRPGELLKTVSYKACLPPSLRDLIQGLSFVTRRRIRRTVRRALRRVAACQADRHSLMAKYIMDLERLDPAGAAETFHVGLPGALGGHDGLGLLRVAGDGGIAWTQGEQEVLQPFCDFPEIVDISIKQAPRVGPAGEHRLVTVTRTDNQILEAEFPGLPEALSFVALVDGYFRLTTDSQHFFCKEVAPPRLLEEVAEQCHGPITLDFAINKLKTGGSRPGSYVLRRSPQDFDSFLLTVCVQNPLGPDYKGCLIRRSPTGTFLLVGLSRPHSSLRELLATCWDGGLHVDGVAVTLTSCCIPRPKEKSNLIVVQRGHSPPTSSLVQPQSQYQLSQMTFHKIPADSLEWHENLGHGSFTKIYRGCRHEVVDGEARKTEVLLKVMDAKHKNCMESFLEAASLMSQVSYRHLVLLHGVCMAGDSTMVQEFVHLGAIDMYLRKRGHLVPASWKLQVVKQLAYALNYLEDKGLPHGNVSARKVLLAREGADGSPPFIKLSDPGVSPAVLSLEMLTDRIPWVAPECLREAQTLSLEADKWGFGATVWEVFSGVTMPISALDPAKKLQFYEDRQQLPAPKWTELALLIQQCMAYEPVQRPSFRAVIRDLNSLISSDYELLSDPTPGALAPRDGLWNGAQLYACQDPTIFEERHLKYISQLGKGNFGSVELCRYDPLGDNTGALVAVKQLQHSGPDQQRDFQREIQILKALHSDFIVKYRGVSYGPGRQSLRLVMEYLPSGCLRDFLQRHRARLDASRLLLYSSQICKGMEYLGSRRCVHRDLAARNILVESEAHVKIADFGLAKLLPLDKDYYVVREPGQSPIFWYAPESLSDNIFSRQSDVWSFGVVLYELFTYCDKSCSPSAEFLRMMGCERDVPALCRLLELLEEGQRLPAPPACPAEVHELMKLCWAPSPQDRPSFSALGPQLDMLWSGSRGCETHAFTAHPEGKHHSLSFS

[3] = molecular target: Epidermal growth factor receptor (Homo sapiens, UniProt P00533); test: Inhibition of recombinant human N-terminal GST-tagged EGFR kinase domain (696 to end residues) expressed in baculovirus infected Sf21 insect cells using STK as substrate by HTRF assay
Sequence of Epidermal growth factor receptor (P00533 whole entry, the tested form may be a part): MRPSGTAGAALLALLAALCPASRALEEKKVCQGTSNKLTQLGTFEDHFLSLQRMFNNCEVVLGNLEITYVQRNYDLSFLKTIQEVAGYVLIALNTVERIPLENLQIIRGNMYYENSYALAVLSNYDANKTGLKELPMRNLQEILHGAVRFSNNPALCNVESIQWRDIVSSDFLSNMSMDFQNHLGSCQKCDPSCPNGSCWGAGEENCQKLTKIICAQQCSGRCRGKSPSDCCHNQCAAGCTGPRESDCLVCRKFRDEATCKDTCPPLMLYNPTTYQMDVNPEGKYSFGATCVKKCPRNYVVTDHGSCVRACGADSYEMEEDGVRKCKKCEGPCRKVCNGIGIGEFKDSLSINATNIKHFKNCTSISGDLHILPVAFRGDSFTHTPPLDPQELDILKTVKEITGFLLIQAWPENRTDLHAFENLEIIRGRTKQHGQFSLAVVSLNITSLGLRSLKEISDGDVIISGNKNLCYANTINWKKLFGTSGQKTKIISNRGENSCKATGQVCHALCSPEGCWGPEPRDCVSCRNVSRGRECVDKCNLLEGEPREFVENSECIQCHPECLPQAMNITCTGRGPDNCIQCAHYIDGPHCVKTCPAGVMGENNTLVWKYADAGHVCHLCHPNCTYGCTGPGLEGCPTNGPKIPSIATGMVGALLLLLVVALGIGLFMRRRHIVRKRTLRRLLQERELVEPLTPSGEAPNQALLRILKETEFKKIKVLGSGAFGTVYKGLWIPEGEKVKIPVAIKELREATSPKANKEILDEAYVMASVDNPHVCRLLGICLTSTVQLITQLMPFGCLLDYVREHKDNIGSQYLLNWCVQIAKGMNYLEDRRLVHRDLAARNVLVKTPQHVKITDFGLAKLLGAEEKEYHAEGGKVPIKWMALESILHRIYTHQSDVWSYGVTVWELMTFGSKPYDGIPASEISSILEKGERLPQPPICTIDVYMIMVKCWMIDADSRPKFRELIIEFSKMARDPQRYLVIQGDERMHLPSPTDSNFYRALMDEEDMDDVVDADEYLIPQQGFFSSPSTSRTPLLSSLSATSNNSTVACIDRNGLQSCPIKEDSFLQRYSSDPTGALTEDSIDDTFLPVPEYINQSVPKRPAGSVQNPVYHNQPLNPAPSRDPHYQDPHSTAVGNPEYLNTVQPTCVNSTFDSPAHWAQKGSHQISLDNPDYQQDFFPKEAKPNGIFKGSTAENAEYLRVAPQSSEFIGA

[4] = molecular target: T2, Tyrosine-protein kinase ITK/TSK (Homo sapiens, UniProt Q08881); test: Inhibition of recombinant human N-terminal His6-tagged ITK (352 to 617 residues) expressed in baculovirus infected Sf21 insect cells using STK substrate by HTRF assay
T2 sequence (Q08881 whole entry): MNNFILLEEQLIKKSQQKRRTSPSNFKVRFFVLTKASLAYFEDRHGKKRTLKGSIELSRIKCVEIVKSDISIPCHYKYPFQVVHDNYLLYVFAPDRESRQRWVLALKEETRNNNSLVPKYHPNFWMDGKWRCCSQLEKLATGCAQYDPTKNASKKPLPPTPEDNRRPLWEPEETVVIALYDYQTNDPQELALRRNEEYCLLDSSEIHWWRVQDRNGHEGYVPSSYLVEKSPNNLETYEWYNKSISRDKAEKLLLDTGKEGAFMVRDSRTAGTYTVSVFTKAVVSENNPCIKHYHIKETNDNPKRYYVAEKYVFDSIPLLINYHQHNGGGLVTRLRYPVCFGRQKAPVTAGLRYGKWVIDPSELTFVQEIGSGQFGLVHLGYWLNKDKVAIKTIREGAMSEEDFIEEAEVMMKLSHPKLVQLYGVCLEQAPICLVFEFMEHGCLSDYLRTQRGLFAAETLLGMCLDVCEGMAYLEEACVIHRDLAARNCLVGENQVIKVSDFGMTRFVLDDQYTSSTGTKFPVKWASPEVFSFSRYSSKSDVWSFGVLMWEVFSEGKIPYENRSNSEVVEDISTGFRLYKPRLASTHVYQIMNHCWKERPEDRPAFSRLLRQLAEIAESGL

[5] = molecular target: T3, Tyrosine-protein kinase ITK/TSK (Homo sapiens) (UniProt Q08881); test: Inhibition of recombinant human N-terminal His6-tagged ITK (352 to 617 residues) expressed in baculovirus infected Sf21 insect cells assessed as ratio of Kinact to Ki using STK substrate by HTRF assay
T3 sequence (whole entry): T2 sequence (Q08881 whole entry)

[6] = molecular target: T3, Tyrosine-protein kinase ITK/TSK (Homo sapiens); test: Inhibition of recombinant human N-terminal His6-tagged ITK (352 to 617 residues) expressed in baculovirus infected Sf21 insect cells assessed as inactivation rate constant using STK substrate by HTRF assay
[7] = molecular target: T3, Tyrosine-protein kinase ITK/TSK (Homo sapiens); test: Inhibition of ITK in human Jurkat cells assessed as reduction in anti-CD3/CD28-stimulated PLCgamma1 phosphorylation at 0.1 to 10000 nM preincubated for 2 hrs followed by anti-CD3/CD28 beads addition and measured after 30 min by Western blot analysis; type: cell-based
[8] = molecular target: T3, Tyrosine-protein kinase ITK/TSK (Homo sapiens); test: Inhibition of human ITK at 1 uM using MAP as substrate in presence of [gamma33P]-ATP relative to control
[9] = molecular target: T2, Tyrosine-protein kinase ITK/TSK; test: Inhibition of kinase tracer 236 binding to recombinant full length GST-tagged human ITK cytoplasmic domain expressed in baculovirus expression system incubated for 60 mins by Lanthascreen assay
[10] = molecular target: Tyrosine-protein kinase Blk (Homo sapiens, UniProt P51451); test: Inhibition of BLK (unknown origin) using […] as substrate by HTRF assay
Sequence of Tyrosine-protein kinase Blk (P51451 whole entry): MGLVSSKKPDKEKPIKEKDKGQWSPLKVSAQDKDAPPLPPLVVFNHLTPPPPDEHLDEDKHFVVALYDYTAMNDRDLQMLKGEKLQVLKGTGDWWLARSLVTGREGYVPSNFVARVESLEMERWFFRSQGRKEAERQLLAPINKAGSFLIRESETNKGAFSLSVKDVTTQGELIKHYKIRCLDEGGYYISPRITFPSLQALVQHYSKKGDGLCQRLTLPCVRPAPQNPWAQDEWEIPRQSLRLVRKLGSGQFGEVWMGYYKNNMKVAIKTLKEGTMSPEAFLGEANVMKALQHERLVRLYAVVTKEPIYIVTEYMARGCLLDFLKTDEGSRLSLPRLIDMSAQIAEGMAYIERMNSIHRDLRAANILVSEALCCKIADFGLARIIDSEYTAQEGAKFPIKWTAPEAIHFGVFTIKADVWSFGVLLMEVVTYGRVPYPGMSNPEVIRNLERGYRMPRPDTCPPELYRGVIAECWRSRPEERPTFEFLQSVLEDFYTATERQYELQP

HEK-293T = test: Growth inhibition of HEK293T cells incubated for 72 hrs by CellTiter-Glo luminescent cell viability assay; type: functional; conditions: Homo sapiens
CCRF-CEM = test: Growth inhibition of human CCRF-CEM cells incubated for 72 hrs by CellTiter-Glo luminescent cell viability assay; type: functional
Jurkat = test: Growth inhibition of human Jurkat cells incubated for 72 hrs by CellTiter-Glo luminescent cell viability assay; type: functional
H9 = test: Growth inhibition of human H9 cells incubated for 72 hrs by CellTiter-Glo luminescent cell viability assay; type: functional; conditions: H9, 72 h
MOLT-4 = test: Growth inhibition of human MOLT4 cells incubated for 72 hrs by CellTiter-Glo luminescent cell viability assay; type: functional; conditions: MOLT-4, 72 h
[11] = molecular target: T3, Tyrosine-protein kinase ITK/TSK (Homo sapiens); test: Covalent binding affinity to recombinant human ITK assessed as binding to Cys442 residue at 50 uM incubated for 24 hrs prior to trypsin addition for 4 hrs and boiled for 3 min followed by chymotrypsin addition and measured after overnight incubation by LC/MS/MS analysis

Sequence of Tyrosine-protein kinase BTK (Q06187 whole entry): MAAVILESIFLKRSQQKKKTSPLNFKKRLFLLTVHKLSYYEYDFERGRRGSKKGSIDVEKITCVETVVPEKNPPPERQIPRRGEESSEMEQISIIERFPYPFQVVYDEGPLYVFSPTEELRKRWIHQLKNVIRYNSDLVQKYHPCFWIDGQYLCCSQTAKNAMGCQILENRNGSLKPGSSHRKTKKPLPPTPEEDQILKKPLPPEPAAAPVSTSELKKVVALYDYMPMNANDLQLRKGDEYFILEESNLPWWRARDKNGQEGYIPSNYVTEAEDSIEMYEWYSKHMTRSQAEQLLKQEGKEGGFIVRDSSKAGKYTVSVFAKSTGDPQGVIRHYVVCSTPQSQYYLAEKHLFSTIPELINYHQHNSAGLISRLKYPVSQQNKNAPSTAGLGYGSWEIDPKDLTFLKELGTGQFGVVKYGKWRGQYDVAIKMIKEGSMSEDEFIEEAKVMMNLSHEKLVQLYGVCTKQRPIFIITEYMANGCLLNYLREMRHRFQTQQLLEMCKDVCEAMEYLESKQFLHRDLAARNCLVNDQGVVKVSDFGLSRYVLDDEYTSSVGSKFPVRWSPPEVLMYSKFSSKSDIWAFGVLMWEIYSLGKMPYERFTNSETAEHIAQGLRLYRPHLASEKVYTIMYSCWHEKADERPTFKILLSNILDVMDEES

IC50 [1] [nM] | IC50 [2] [nM] | IC50 [3] [nM] | IC50 [4] [nM] | SMILES | further results
26 | 1.2 | 8.7 | 1.3 | C=CC(=O)N1CCC[C@@H](Oc2nc(Nc3ccc(N4CCN(CC)CC4)cc3)nc3[nH]cc(-c4cncc(NC)n4)c23)C1 | –
270 | 24 | 499 | 3.7 | C=CC(=O)N1CCC[C@@H](Oc2nc(Nc3ccc(N4CCN(C(C)=O)CC4)cc3)nc3[nH]cc(-c4cncc(NC)n4)c23)C1 | Ratio [5]: 153 ×10³ /M.s; K [6]: 0.31 min⁻¹; inhibition [7]: Active; Ki [4]: 33.7 nM
286 | 69 | 150 | 2.2 | C=CC(=O)N1CCC[C@@H]1COc1nc(Nc2ccc(N3CCN(C(C)=O)CC3)cc2)nc2[nH]cc(-c3cncc(NC)n3)c12 | –
> 3000 | 61 | > 3000 | 55 | C#CCCN1CCN(c2ccc(Nc3nc(OC4CCN(C(=O)C=C)CC4)c4c(-c5cncc(NC)n5)c[nH]c4n3)cc2)CC1 | –
1610 | 186 | 937 | 7.1 | CNc1cncc(-c2c[nH]c3nc(Nc4ccc(N5CCN(C(C)=O)CC5)cc4)nc(OC4CCOCC4)c23)n1 | –
1470 | 104 | 654 | 5.1 | CNc1cncc(-c2c[nH]c3nc(Nc4ccc(N5CCN(C(C)=O)CC5)cc4)nc(OC4CCCCC4)c23)n1 | –
434 | 3.7 | 1970 | 7.8 | C=CC(=O)N1CCC[C@H]1COc1nc(Nc2ccc(N3CCN(C(C)=O)CC3)cc2)nc2[nH]cc(-c3cncc(NC)n3)c12 | –
1480 | 51 | 903 | 2.3 | C=CC(=O)N1CCC(Oc2nc(Nc3ccc(N4CCN(C(C)=O)CC4)cc3)nc3[nH]cc(-c4cncc(NC)n4)c23)CC1 | –
35 | 11 | 138 | < 1.26 | C=CC(=O)N1CCC[C@@H](Oc2nc(Nc3ccc(N4CCOCC4)cc3)nc3[nH]cc(-c4cncc(NC)n4)c23)C1 | Ratio [5]: 891 ×10³ /M.s; K [6]: 0.31 min⁻¹; inhibition [7]: Active; Activity [11]: Active; Ki [4]: 5.8 nM
> 10000 | – | – | 375 | C=CC(=O)N1CCC[C@H](Oc2nc(Nc3ccc(N4CCN(C(C)=O)CC4)cc3)nc3[nH]cc(-c4cncc(NC)n4)c23)C1 | –

The remaining lines, values behind:

SMILES | IC50 [1] [nM] | IC50 [2] [nM] | IC50 [3] [nM] | IC50 [4] [nM] | further results
C=CC(=O)Nc1cccc(Oc2nc(Nc3ccc(N4CCN(C)CC4)c(F)c3)nc3[nH]ccc23)c1 | – | – | – | – | inhibition [8]: 80%
COc1ccc(-c2c[nH]c3nc(Nc4ccc(N5CCOCC5)cc4)nc(Oc4ccccc4)c23)cc1 | – | – | – | – | IC50 [9]: > 10000 nM
C=CC(=O)N1CCC(Oc2nc(Nc3ccc(N4CCOCC4)cc3)nc3[nH]cc(-c4cccc(NC)n4)c23)CC1 | > 10000 | 1430 | > 3000 | 74 | –
C=CC(=O)Nc1cccc(Oc2nc(Nc3ccc(N4CCOCC4)cc3)nc3[nH]cc(-c4ccncc4)c23)c1 | 3.9 | 0.6 | 2.3 | 0.5 | IC50 [10]: 0.7 nM
C=CC(=O)N1CCC(Oc2nc(Nc3ccc(N4CCOCC4)cc3)nc3[nH]cc(-c4ccnc(NC)c4)c23)CC1 | 36 | 4.2 | 38 | < 1.26 | –
C=CC(=O)Nc1cccc(Oc2nc(Nc3ccc(N4CCN(C(C)=O)CC4)cc3)nc3[nH]cc(-c4cncc(NC)n4)c23)c1 | 8 | – | – | 5.4 | –
CNc1cncc(-c2c[nH]c3nc(Nc4ccc(N5CCN(C(C)=O)CC5)cc4)nc(Oc4ccccc4)c23)n1 | 1460 | 470 | 1050 | 5.4 to 19 | –
C=CC(=O)N1CCC(Oc2nc(Nc3ccc(N4CCOCC4)cc3)nc3[nH]cc(-c4cncc(NC)c4)c23)CC1 | 942 | 84 | > 3000 | 3.6 | GI50 (HEK-293T): 270 nM; GI50 (CCRF-CEM): 48 nM; GI50 (Jurkat): 188 nM; GI50 (H9): 190 nM; GI50 (MOLT-4): 109 nM
Nc1ccc(-c2c[nH]c3nc(Nc4ccc(N5CCOCC5)cc4)nc(Oc4ccccc4)c23)cc1 | – | – | – | – | IC50 [9]: > 10000 nM

Reference: ChEMBL document CHEMBL4346710, “Discovery of 7H-pyrrolo[2,3-d]pyrimidine derivatives as selective covalent irreversible inhibitors of interleukin-2-inducible T-cell kinase (Itk)” (Eur J Med Chem, 2019)
